# Measured values: patent US12545637B2, “Extrahepatic targeted cationic lipid compound with high efficiency and low toxicity and its composition” (BEIJING YOUCARE KECHUANG PHARMACEUTICAL TECHNOLOGY CO., LTD., priority 2023, dated 2026)
# How the values were obtained:
# [1] = Detection of encapsulation efficiency, drug loading concentration and total RNA concentration (RiboGreen); assay type: physicochemical
# Summary of the method: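 Samples were diluted in 1×TE to about […], combined with TE and 0.1% Triton X-100 buffers, and held at 37 °C for 10 minutes before dye addition.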
# [2] = system: 293T cells; assay: Fluorescent detection of Fluc-mRNA (cell transfection efficiency of LNP formulations); assay type: cell-based
# [3] = system: female BALB/C mice; assay: In vivo imaging in mice of Fluc-mRNA LNP formulations (mRNA expression and duration)
# Summary of the method: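 Female BALB/C mice (4-6 weeks, 17-19 g) received LNP carrying […] Fluc-mRNA intramuscularly. At 6h, 24 h, 48h and 7d, fluorescent imaging substrate was given intraperitoneally and after 5 minutes average radiance, as a measure of expressed protein, was imaged on an IVIS Spectrum system.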
# [4] = system: 293T cells; assay: Fluorescent detection of Fluc-mRNA (cell transfection efficiency of LNP formulations); assay type: cell-based; remark: listed apart in the source
# [5] = LNP formulation prepared from the cationic lipid
smiles,measurement,setting,value
"CCCCCCCCC(CCCCCCCC)OC(=O)CCCCCN(CCO)CCN(CCO)CCCCCC(=O)OC(CCCCCCCC)CCCCCCCC [YK-401, di(heptadecan-9-yl) 6,6′-(ethane-1,2-diyl-bis((2-hydroxyethyl)azanediyl))dihexanoate]",Drug loading concentration,[1]; [5],37.16 µg/mL
same,Encapsulation efficiency,[1]; [5],83.6%
same,Total RNA concentration,[1]; [5],41.71 µg/mL
same,encapsulation efficiency higher than ALC-0315,[1]; difference vs ALC-0315,20.3%
same,encapsulation efficiency higher than HIMA,[1]; difference vs HIMA (HHMA),23.4%
same,encapsulation efficiency higher than SM-102,[1]; difference vs SM-102,20.7%
same,encapsulation efficiency higher than YK-009,[1]; difference vs YK-009,20.2%
same,encapsulation efficiency higher than compound 21,[1]; difference vs compound 21,25.6%
same,encapsulation efficiency higher than compound 23,[1]; difference vs compound 23,27.4%
same,"drug loading concentration, times that of ALC-0315",[1]; ratio vs ALC-0315,1.38
same,"total RNA concentration, times that of ALC-0315",[1]; ratio vs ALC-0315,1.10
same,"drug loading concentration, times that of HIMA",[1]; ratio vs HIMA (HHMA),1.14
same,"total RNA concentration, times that of HIMA",[1]; ratio vs HIMA (HHMA),1.14
same,"drug loading concentration, times that of SM-102",[1]; ratio vs SM-102,1.40
same,"total RNA concentration, times that of SM-102",[1]; ratio vs SM-102,1.16
same,"drug loading concentration, times that of YK-009",[1]; ratio vs YK-009,1.35
same,"total RNA concentration, times that of YK-009",[1]; ratio vs YK-009,1.08
same,"drug loading concentration, times that of compound 21",[1]; ratio vs compound 21,1.69
same,"total RNA concentration, times that of compound 21",[1]; ratio vs compound 21,1.44
same,"drug loading concentration, times that of compound 23",[1]; ratio vs compound 23,1.86
same,"total RNA concentration, times that of compound 23",[1]; ratio vs compound 23,1.34
same,Relative light unit (RLU),"[2]; LNP with 0.3 μg Fluc-mRNA, 96-well plate, 24 hours",5609550 RLU
same,"cell transfection efficiency, times that of YK-415",[2]; ratio vs YK-415,18.82
same,"cell transfection efficiency, times that of YK-417",[2]; ratio vs YK-417,47.83
same,"cell transfection efficiency, times that of YK-418",[2]; ratio vs YK-418,50.42
same,"cell transfection efficiency, times that of YK-424",[2]; ratio vs YK-424,1.95
same,"RLU value, times that of compound 21",[2]; ratio vs compound 21,3.71
same,"RLU value, times that of compound 23",[2]; ratio vs compound 23,4.00
same,"average radiation intensity, times that of ALC-0315",[3]; 6 h,1.85
same,"average radiation intensity, times that of HHMA",[3]; 6 h,2.36
same,"average radiation intensity, times that of SM-102",[3]; 6 h,2.25
same,"average radiation intensity, times that of compound 21",[3]; 6 h,2.59
same,"average radiation intensity, times that of compound 23",[3]; 6 h,2.68
same,"expression amount in mice, times that of YK-415",[3]; 6 h,13.22
same,"expression amount in mice, times that of YK-417",[3]; 6 h,25.75
same,"mRNA expression in mice, times that of YK-411",[3]; 6 h,266.26
same,"average radiation intensity, times that of ALC-0315",[3]; 24 h,4.25
same,"average radiation intensity, times that of HHMA",[3]; 24 h,6.72
same,"average radiation intensity, times that of SM-102",[3]; 24 h,6.53
same,"average radiation intensity, times that of compound 21",[3]; 24 h,7.26
same,"average radiation intensity, times that of compound 23",[3]; 24 h,7.98
same,"expression amount in mice, times that of YK-415",[3]; 24 h,12.50
same,"expression amount in mice, times that of YK-417",[3]; 24 h,40.34
same,"mRNA expression in mice, times that of YK-411",[3]; 24 h,398.73
same,"average radiation intensity, times that of ALC-0315",[3]; 48 h,9.79
same,"average radiation intensity, times that of HHMA",[3]; 48 h,11.79
same,"average radiation intensity, times that of SM-102",[3]; 48 h,11.96
same,"average radiation intensity, times that of compound 21",[3]; 48 h,12.46
same,"average radiation intensity, times that of compound 23",[3]; 48 h,11.94
same,"expression amount in mice, times that of YK-415",[3]; 48 h,24.89
same,"expression amount in mice, times that of YK-417",[3]; 48 h,55.79
same,"mRNA expression in mice, times that of YK-411",[3]; 48 h,403.10
same,"average radiation intensity, times that of ALC-0315",[3]; 7 d,1.50
same,"average radiation intensity, times that of HHMA",[3]; 7 d,1.76
same,"average radiation intensity, times that of SM-102",[3]; 7 d,1.56
same,"average radiation intensity, times that of compound 21",[3]; 7 d,1.65
same,"average radiation intensity, times that of compound 23",[3]; 7 d,1.72
same,"expression amount in mice, times that of YK-415",[3]; 7 d,2.60
same,"expression amount in mice, times that of YK-417",[3]; 7 d,4.60
same,"mRNA expression in mice, times that of YK-411",[3]; 7 d,21.90
same,"average radiation intensity, 6 h","[3]; Fluc-mRNA LNP intramuscular, 6 h after administration",1557640
same,"average radiation intensity, 24 h","[3]; Fluc-mRNA LNP intramuscular, 24 h after administration",806240
same,"average radiation intensity, 48 h","[3]; Fluc-mRNA LNP intramuscular, 48 h after administration",393020
same,"average radiation intensity, 7 d","[3]; Fluc-mRNA LNP intramuscular, 7 d after administration",10512
same,"RLU value, times that of ALC-0315",[4]; ratio vs ALC-0315,2.56
same,"RLU value, times that of HHMA",[4]; ratio vs HHMA,2.70
same,"RLU value, times that of Lipofectamine 3000",[4]; ratio vs Lipofectamine 3000,4.67
same,"RLU value, times that of YK-009",[4]; ratio vs YK-009,1.09
same,"RLU value, times that of YK-405",[4]; ratio vs YK-405,1.75
same,"RLU value, times that of YK-406",[4]; ratio vs YK-406,71.69
same,"RLU value, times that of YK-408",[4]; ratio vs YK-408,3.81
same,"RLU value, times that of YK-409",[4]; ratio vs YK-409,8.37
same,"RLU value, times that of YK-410",[4]; ratio vs YK-410,13.75
same,"cell transfection efficiency, times that of YK-412",[4]; ratio vs YK-412,1.66
same,"cell transfection efficiency, times that of YK-413",[4]; ratio vs YK-413,4.07
same,"cell transfection efficiency, times that of YK-414",[4]; ratio vs YK-414,12.63
same,"cell transfection efficiency, times that of YK-416",[4]; ratio vs YK-416,1.41
same,"cell transfection efficiency, times that of YK-419",[4]; ratio vs YK-419,1.77
same,"cell transfection efficiency, times that of YK-420",[4]; ratio vs YK-420,1.40
same,"cell transfection efficiency, times that of YK-421",[4]; ratio vs YK-421,12.02
